# Results taken from patent publication US20230277669A1, “USES OF UROLITHINS” (Amazentis SA, priority 2022, published 2023).
# Legend:
# AOM-induced colon tumors = test: AOM-induced tumorigenesis with UA-containing diets; assay type: in vivo, FVB mice
# Description: Oral UA confers anti-tumor effects in murine colorectal cancer in a T-cell dependent manner. (FIG. 1A) Schematic representation of AOM model and different UA containing diets. (FIG. 1B) Representative images of swiss-roll sections from AOM-induced colon tumors. Scale bars are 2 mm (upper row) and 300 µm (lower row), respectively. (FIG. 1C) Tumor incidence of AOM-induced tumors receiving different UA-containing diets; n=4/5/5. Data are mean ±SD, depicting one of two independent experiments. *p < 0.05 by two-sided t-test. (FIG. 1D) Average lesion size of AOM-induced tumors receiving different UA-containing diets; n=4/5/5. Data are mean ±SD, depicting one of two independent experiments. *p < 0.05 by two-sided t-test. (FIG. 1E) Relative number of CD45^+CD3^+ T cells in colons of AOM-treated mice at week 24 (n>7, pooled from two independent experiments). Data are mean ± SD, **p < 0.01 by two-sided t-test. (FIG. 1F) Organoid treatment scheme. APTK-organoids were incubated in the presence of UA or DMSO for the indicated time points, prior to flow cytometric analysis. (FIG. 1G) Quantification of lysosome formation as assessed by lysotracker MFI via flow cytometry after 24 h incubation at the presence of various UA concentrations (n=5/4/4). Depicts one out of two indepdent experiments. Data are mean ± SD, *p < 0.05; **p < 0.01 as established via two-sided t-test. (FIG. 1H) Mitotracker signal of APTK organoids incubated for 24 h at the presence of UA in vitro (n=4/4/4) and antigen presentation via MHC-I molecules (I) after 48 h of treatment (n=4/4/4). Results from one out of two independent experiments are shown. Data are mean ± SD, statistical analysis was performed via two-sided t-test, *p < 0.05; **p < 0.01, ****p < 0.0001. (FIG. 1I) Upregulation of MHC-I by UA. (FIG. 1J) Experimental setup of oral UA administration in mice with established APTK-s.c. tumors. Treatment diet was initiated eleven days after tumor injection and maintained until the end of the experiment. (FIG. 1K) Growth curve of mice subcutaneously transplanted with APTK tumors, receiving either UA-containing or control food (n=7 per group). Data are mean ± SD, ***p <0.001 by two-sided t-test. One out of two independent experiments are shown. (FIG. 1L) End point tumor weight, (FIG. 1M) CD8+ T cell infiltration in APTK-s.c. tumors assessed by flow cytometry, normalising total number of CD8^+ T cells to tumor weight (n=7 per group). Data are mean ± SD, statistical analysis was performed via Mann-Whitney test, *p < 0.05 and ***p <0.001. (FIG. 1N) Size of subcutaneous APTK tumors in Rag1^-/- mice receiving UA-containing or control food (n=7 per group). Treatment was initiated as depicted in FIG. 1J. Data are mean +-SD, depicting one out of two independent experiments. […]
# subcutaneous APTK tumors = test: Oral UA in Rag1-/- mice with s.c. APTK tumors; assay type: in vivo; conditions: UA-containing vs control food; no mature T and B cells
# Description: Oral UA confers anti-tumor effects in murine colorectal cancer in a T-cell dependent manner. (FIG. 1A) Schematic representation of AOM model and different UA containing diets. (FIG. 1B) Representative images of swiss-roll sections from AOM-induced colon tumors. Scale bars are 2 mm (upper row) and 300 µm (lower row), respectively. (FIG. 1C) Tumor incidence of AOM-induced tumors receiving different UA-containing diets; n=4/5/5. Data are mean ±SD, depicting one of two independent experiments. *p < 0.05 by two-sided t-test. (FIG. 1D) Average lesion size of AOM-induced tumors receiving different UA-containing diets; n=4/5/5. Data are mean ±SD, depicting one of two independent experiments. *p < 0.05 by two-sided t-test. (FIG. 1E) Relative number of CD45^+CD3^+ T cells in colons of AOM-treated mice at week 24 (n>7, pooled from two independent experiments). Data are mean ± SD, **p < 0.01 by two-sided t-test. (FIG. 1F) Organoid treatment scheme. […] (FIG. 1G) Quantification of lysosome formation as assessed by lysotracker MFI via flow cytometry after 24 h incubation at the presence of various UA concentrations (n=5/4/4). […] (FIG. 1L) End point tumor weight, (FIG. 1M) CD8+ T cell infiltration in APTK-s.c. tumors assessed by flow cytometry, normalising total number of CD8^+ T cells to tumor weight (n=7 per group). […]
# T cells = test: RNA sequencing of T cells exposed to DMSO or UA; assay type: cell-based; conditions: 48 hours
# Protocol: (FIG. 5B) RNAseq expression heatmap of selected genes: Genes associated with immune checkpoints, effector molecules and genes encoding for leukocyte migration. (FIG. 5C) Expression of genes associated with T cell memory vs effector fate decisions. Data underwent z-score normalization for display (n=3 per group). […] T cells were stimulated for 48 h in vitro at the presence of the indicated treatments. Data are mean ± SD (n=4/4/3), statistical analysis was performed by two-sided t-test (p***<0.01; p****0.0001). (FIG. 5E) Quantification of TSCM formation within CD8+ cells after 48 h of in vitro stimulation under various treatment conditions, including TCF1 inhibition by ICG001 (DMSO, UA, TCF1i n=4; TCFi+UA n=3). Data are mean ± SD, statistical analysis was performed by two-sided t-test (*p < 0.05; n.s. not significant). One of two independent experiments are shown. (FIG. 5F) Western blot analysis of β-Catenin phosphorylation status in CD3+ cells stimulated via plate-bound aCD3/aCD28 antibodies for 6h. N=3 per group. (FIG. 5G) Cytosolic fractionation of CD3+ cells stimulated for six hours in the presence of Urolithin or DMSO control (c= cytosolic, m = mitochondrial fraction). Experiment was repeated twice.
# (FIG. 8A) Ingenuity pathway upstream regulator analysis of UA treated T cells. Assessed from RNAseq data. Plausible upregulation is depicted by z score, significance is shown on the overlying dot spot. Genes with a log2 fold change of 1 and p<0.05 were initially considered.
# To explore the downstream events linking mitophagy to TSCM formation, we performed RNA sequencing to globally assess differential gene expression in T cells exposed for 48 hours to either DMSO or UA in vitro. […] Indeed, when we applied ICG001 to pharmacologically block TCF-1, UA-induced TSCM formation in vitro was abrogated (FIGS. 5D-E).
# [1] = commercially-available supplements containing urolithin A; cited from earlier work
# [2] = high-dose UA diet (2.28 g/kg), 18 weeks
smiles,measurement,setting,value
O=c1oc2cc(O)ccc2c2ccc(O)cc12 [Urolithin A],tumor incidence,AOM-induced colon tumors; [2],significant decrease
same,tumor size,AOM-induced colon tumors; [2],significant decrease
same,infiltration of CD3+ T cells,"AOM-induced colon tumors; high-dose UA diet, colons at week 24",increased infiltration of CD3^+T cells
same,tumor load,"AOM-induced colon tumors; low-dose UA diet (0.57 g/kg), 18 weeks",did not have an effect on tumor load
same,"tumor size, protective effect of UA",subcutaneous APTK tumors,abrogated the protective effect of UA
same,effector fate associated genes Prdm1 and Id2,T cells,reduced expression
same,"expression of Cd27, Ccr7 and adhesion genes",T cells,enhancing expression
same,expression of genes coding for immune checkpoints and effector molecules,T cells,reduced the expression
same,"genes involved in memory formation (Tcf7, Bach2, Bcl6)",T cells,special enrichment
same,bioavailability profile,[1],favourable bioavailability profile
same,safety,[1],deemed safe
